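Tested at 5 concentrations; 48 h exposure; 96-well plates; endpoints linearly interpolated, else capped at highest concentration. GI50: concentration for 50% inhibition of growth. TGI: total growth inhibition.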

Test systems include HL-60(TB) leukemia; HS 578T breast; HT29 colon; IGROV1 ovarian; K-562 leukemia; MDA-MB-435; OVCAR-4 ovarian; RPMI-8226 leukemia; SF-295 CNS; UACC-62 melanoma.
Holding throughout (assay): DTP human tumour cell line panel, 48 h

Take `Cc1ccccc1[P+](Cc1ccccc1)(c1ccccc1)c1ccccc1`: the GI50 in the test with HL-60(TB) leukemia is 1230 nM; with HS 578T breast, 1830 nM; with HT29 colon, 1790 nM; in the test on IGROV1 ovarian, 1800 nM; in the test with K-562 leukemia it was 1080 nM; in the test on MDA-MB-435 it was 601 nM. Also, the GI50 is 1.91 µM with OVCAR-4 ovarian, 603 nM in the test with RPMI-8226 leukemia, 1750 nM with SF-295 CNS and 1360 nM in the test on UACC-62 melanoma. Also, the TGI was 4.04 µM with HL-60(TB) leukemia; 11.7 µM in the test with HS 578T breast; 29 µM in the test on HT29 colon; 32.1 µM in the test on IGROV1 ovarian; > 100 µM with K-562 leukemia; 3.71 µM with MDA-MB-435. The TGI in the test with OVCAR-4 ovarian is > 100 µM; in the test on RPMI-8226 leukemia it was 6.34 µM; with SF-295 CNS, 5.28 µM; in the test with UACC-62 melanoma, 11.9 µM.
As to `CCCCCCCCCCC(C(=O)O)C1(C(=O)O)CCC(=O)O1` (stereo not given), the TGI in the test with HL-60(TB) leukemia, in the test with HS 578T breast, in the test with HT29 colon, in the test on IGROV1 ovarian, in the test on K-562 leukemia and in the test on MDA-MB-435 was > 100 µM each time. Further, the TGI with OVCAR-4 ovarian, in the test on RPMI-8226 leukemia, in the test on SF-295 CNS and in the test on UACC-62 melanoma was > 100 µM in each case.
Consider `CN1CCC(n2cnc(-c3ccc(F)cc3)c2-c2ccnc(NCCO)n2)CC1`, for which the GI50 with HL-60(TB) leukemia was > 25000 nM; with HS 578T breast it was > 25000 nM; in the test on HT29 colon it was 10000 nM; in the test with IGROV1 ovarian it was 18100 nM; in the test on K-562 leukemia it was 18300 nM; in the test with MDA-MB-435, 11500 nM. For the same molecule, the GI50 in the test with OVCAR-4 ovarian was > 20.9 µM; with RPMI-8226 leukemia, > 25000 nM; in the test on SF-295 CNS, > 19800 nM; in the test with UACC-62 melanoma it was > 21600 nM. The TGI with HL-60(TB) leukemia, in the test on HS 578T breast, with HT29 colon, in the test with IGROV1 ovarian, in the test with K-562 leukemia and in the test on MDA-MB-435 was > 25 µM in each case. Besides, the TGI in the test with OVCAR-4 ovarian, in the test with RPMI-8226 leukemia, in the test on SF-295 CNS and in the test on UACC-62 melanoma was > 25 µM each time.
Regarding `Cc1ccc(-c2cn3ccnc3c(-c3ccc(Cl)cc3)n2)cc1`, the GI50 with HL-60(TB) leukemia is 85.6 nM; in the test on HS 578T breast it was 115 nM; in the test with HT29 colon, 310 nM; in the test on IGROV1 ovarian, 1550 nM; in the test on K-562 leukemia, 35.2 nM; in the test on MDA-MB-435, < 12.6 nM. In addition, the GI50 is 14.7 µM in the test on OVCAR-4 ovarian, 207 nM with RPMI-8226 leukemia, 26.8 nM with SF-295 CNS and 137 nM in the test with UACC-62 melanoma. Besides, the TGI in the test with HL-60(TB) leukemia was > 100 µM; in the test with HS 578T breast it was 9.39 µM; in the test on HT29 colon it was 37.4 µM; in the test with IGROV1 ovarian, > 83 µM; in the test with K-562 leukemia, > 100 µM; in the test with MDA-MB-435, 0.185 µM. Moreover, the TGI with OVCAR-4 ovarian is > 100 µM; in the test with RPMI-8226 leukemia, > 39.5 µM; in the test on SF-295 CNS, 2.33 µM; in the test on UACC-62 melanoma it was 35.9 µM.
With `COc1ccc2sc3c(NCCCN(C)C)nc4ccccc4c3c(=O)c2c1`, the GI50 is 1880 nM in the test on HL-60(TB) leukemia; 1490 nM in the test on HS 578T breast; 1500 nM with HT29 colon; 1670 nM with IGROV1 ovarian; 1800 nM in the test on K-562 leukemia; 1590 nM with MDA-MB-435. Besides, the GI50 in the test on OVCAR-4 ovarian was 1.8 µM; in the test with RPMI-8226 leukemia, 1680 nM; in the test on SF-295 CNS it was 1820 nM; with UACC-62 melanoma, 1800 nM. Moreover, the TGI in the test on HL-60(TB) leukemia is 3.91 µM; in the test on HS 578T breast, 3.26 µM; in the test on HT29 colon, 3.02 µM; with IGROV1 ovarian, 3.23 µM; in the test on K-562 leukemia, 4.71 µM; in the test with MDA-MB-435, 2.98 µM. The TGI was 3.82 µM in the test with OVCAR-4 ovarian, 3.66 µM in the test with RPMI-8226 leukemia, 3.27 µM with SF-295 CNS and 3.24 µM with UACC-62 melanoma.
As to `Cc1cc(N(CCCl)CCCl)ccc1C=Nc1ccc(-c2csc(Cc3ccccc3)n2)cc1`, the GI50 in the test on HL-60(TB) leukemia was 1850 nM; in the test with HS 578T breast it was 20300 nM; in the test with HT29 colon it was 17300 nM; with IGROV1 ovarian it was 24200 nM; in the test on K-562 leukemia it was 9880 nM; with MDA-MB-435, 12400 nM. Moreover, the GI50 in the test with OVCAR-4 ovarian was 8.01 µM; with RPMI-8226 leukemia, 8260 nM; with SF-295 CNS, 1650 nM; in the test with UACC-62 melanoma, 621 nM. The TGI is > 46 µM in the test on HL-60(TB) leukemia; 83.7 µM with HS 578T breast; 47.2 µM in the test with HT29 colon; > 100 µM with IGROV1 ovarian; > 100 µM in the test on K-562 leukemia; 39.9 µM with MDA-MB-435. The TGI in the test on OVCAR-4 ovarian is > 100 µM; with RPMI-8226 leukemia it was 44 µM; in the test with SF-295 CNS, 50.6 µM; with UACC-62 melanoma, 16 µM.

The record behind these values is PubChem BioAssay (NCI).
